Data from patent US20110152166A1, “METHOD OF MODULATION OF PROTEIN PHOSPHORYLATION-DEPENDENT CONFORMATIONAL TRANSITIONS WITH LOW MOLECULAR WEIGHT COMPOUNDS” (priority 2006, published 2011).
Where a chain is given by its changes, count along the chain named. Square brackets hold non-standard residues; d marks the D form. Ends that are not written are not given here. pS = N[C@@H](COP(=O)(O)O)C(=O)O

Key:
GST-PDK1 1-556 = biological target: T1, GST-PDK1 1-556 (Homo sapiens, UniProt O15530); test: Surface plasmon resonance, GST-PDK1 binding to biotin-PIFtide and displacement by compounds; details: competition, pre-incubation with PDK1
T1 construct: made in house; host or cells: HEK293
T1 sequence (O15530 1-556): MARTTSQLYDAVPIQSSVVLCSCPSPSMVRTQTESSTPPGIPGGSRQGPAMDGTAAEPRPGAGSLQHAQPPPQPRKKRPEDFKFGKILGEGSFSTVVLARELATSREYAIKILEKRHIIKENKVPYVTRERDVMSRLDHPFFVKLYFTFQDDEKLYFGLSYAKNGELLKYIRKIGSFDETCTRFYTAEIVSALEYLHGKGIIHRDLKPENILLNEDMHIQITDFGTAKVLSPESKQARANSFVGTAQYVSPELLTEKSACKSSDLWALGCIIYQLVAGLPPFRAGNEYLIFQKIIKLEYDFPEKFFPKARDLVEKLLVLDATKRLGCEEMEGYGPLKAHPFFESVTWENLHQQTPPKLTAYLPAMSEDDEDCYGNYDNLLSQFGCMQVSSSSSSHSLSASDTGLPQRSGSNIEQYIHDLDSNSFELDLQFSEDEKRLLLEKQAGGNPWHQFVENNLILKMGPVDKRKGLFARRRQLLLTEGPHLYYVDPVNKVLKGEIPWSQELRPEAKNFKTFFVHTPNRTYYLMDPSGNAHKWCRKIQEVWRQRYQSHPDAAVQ
Protocol: FIG. 3—Small compounds displace the binding of PDK1 1-556 to the HM peptide derived from its substrate PRK2, PIFtide. Surface plasmon resonance measurements were carried out on a BiaCore system to measure the interaction between GST-PDK1 and biotin-PIFtide coupled to a streptavidin-coated chip. (A) Direct measurement of PDK1 interaction with biotin-PIFtide. PDK1 was injected at the indicated concentrations (nM). For the following competition experiments, PDK1 45 nM was used. (B) PDK1 interaction with biotin-PIFtide was abolished by pre-incubation with PIFtide. […] The data points represent the maximal response units obtained after 30 s injection in the presence of the indicated concentration of compound. In (A) and (B) the spikes at the start and end of injection have been eliminated for clarity.
Binding of PDK1 to PIFtide was analysed by surface plasmon resonance on a BiaCore 3000 system using a streptavidin-coated Sensor chip (SA) and biotin-PIFtide, as previously described (Biondi et al., 2001). Biotin-PIFtide was bound to the chip to a level of 15 to 25 response units in different experiments. GST-PDK1 bound to biotin-PIFtide with an affinity of 90 nM, in good agreement with previous data obtained using the BiaCore system. For interaction-displacement assays, GST-PDK1 (60 nM) was injected (30 μl/min) in a buffer containing 10 mM HEPES pH 7.5, 150 mM NaCl, 0.005% Tween20, 1 mM DTT and 1% DMSO, in the presence or absence of compounds. GST-PDK1 was pre-incubated with compounds for 1 to 10 minutes before injection into the system, with similar results. Experiments were performed at least twice using different biotin-PIFtide coated chips, with similar results obtained on each occasion.

GST-PDK1 [Gln150Ala] = biological target: T2, GST-PDK1 [Gln150Ala] (Homo sapiens, UniProt O15530, Q150A); test: PDK1 activity assay with T308tide; format: biochemical; details: for AC50 / Max. activity: GST-PDK1 [Gln150Ala]; for activation of PDK1 mutant (in words): PDK1[Gln150Ala], 20 μM
T2 construct: different protein constructs, comprising the full length protein or the catalytic domain alone; made in house; host or cells: HEK293 cells (pEBG-2T-PDK1 mutant)
T2 sequence (O15530 1-556 Q150A): T1 sequence (O15530 1-556) with Q150A
Protocol: Protein kinase activity tests were performed essentially as previously described (Balendran et al., 2000; Biondi et al., 2000; Biondi et al., 2001). Substrates used were either MBP (for PKCζ or polypeptides (Crosstide for PKB, S6K, SGK and PRK2; T308tide for PDK1, and Kemptide for PKA). PKA (Sigma) was measured in the presence of 100 μM cAMP. Alternatively, assays were performed in a 96 well format, aliquots spotted on p81 phosphocellulose papers (Whatmann), washed in 0.01% phosphoric acid, dried, and then exposed and analysed using Phospholmager technology (Storm, Molecular Dynamics). Activity measurements were performed in duplicates with less than 10% difference between duplicate pairs. Experiments were repeated at least twice, although most of the experiments were repeated multiple times, with similar results.
PDK1 activity assay was performed in a 20 μl mix containing 50 mM Tris-HCl pH 7.5, 0.05 mg/ml BSA, 0.1% β-mercaptoethanol, 10 mM MgCl2, 100 μM [γ^32P]ATP (5-50 cpm/pmol), 0.003% Brij, 150 ng PDK1, and T308tide (from 0.05 to 1 mM). PDK1 specific activity was approximately 5 U/mg (when measured at 1 mM T308tide). The effect of small compounds on PDK1 was repeated with proteins from different purification batches and with different protein constructs, comprising the full length protein or the catalytic domain alone, with similar results. […] This variability may be due to the PIFtide/compound-stimulated autophosphorylation of the activation loop in certain preparations having less than a 1:1 molar phosphorylation stoichiometry at this site.
PDK1 activity was measured at room temperature using a polypeptide substrate derived from the activation loop phosphorylation site of PKB, T308tide (0.1 mM). […] GST-PDK1 wt was purified in numerous occasions and the maximal activation level of different batches varied between 3 and 8 fold activation with PIFtide or compound 1. Variations in the basal activity and fold activation were also observed in mutants. Therefore, comparisons in the maximal level of activation between mutants should be performed with care. The data shown are from an experiment where PIFtide concentrations were tested between 50 nM and 20 µM and compound 1 concentrations were between 5 μM and 200 μM, in triplicate. AC50 and max. activity were estimated by fitting the data to a hyperbola using Kaleidagraph software. One Unit of PDK1 activity was defined as the amount required to catalyse the phosphorylation of 1 nmol of the T308tide in 1 min.

COC(=O)CSC(CC(=O)c1ccc(Cl)cc1)c1ccccc1 (stereo not drawn) [Compound 2]
displacement of PDK1 binding to biotin-PIFtide (in words) (GST-PDK1 1-556): did not displace the binding significantly

REPRILSEEEQEMFRDFDYIADWC [PIFtide, reference compound]
AC50 (GST-PDK1 [Gln150Ala]): 0.5 ± 0.06 µM
Max. activity (GST-PDK1 [Gln150Ala]): 1.55 ± 0.06 U/mg
displacement of PDK1 binding to biotin-PIFtide (in words) (GST-PDK1 1-556): abolished this interaction

O=C(O)CSC(CC(=O)c1ccc(Cl)cc1)c1ccccc1 (stereo not drawn) [Compound 1]
AC50 (GST-PDK1 [Gln150Ala]): 55 ± 9 µM
Max. activity (GST-PDK1 [Gln150Ala]): 1.12 ± 0.06 U/mg
activation of PDK1 mutant (in words) (GST-PDK1 [Gln150Ala]): still activated
displacement of PDK1 binding to biotin-PIFtide (in words) (GST-PDK1 1-556): able to disrupt the binding

P-HM-RSK: phosphorylated HM polypeptide of RSK: KGAGGGGFRGFS(P)FVA (KGAGGGGFRGF[pS]FVA)
activation of PDK1 mutant (in words) (GST-PDK1 [Gln150Ala]): completely abolished
